Data published in patent US10894412B2, “Ink jet recording apparatus” (Seiko Epson Corporation, priority 2018, dated 2021).

Tests used:
[1] = Solubility of organic compound in the ink; type: physicochemical; conditions: in the ink of Comparative Example 4
Text: Incidentally, values in the table are in mass percent. Pigment, dye, and dispersion resin in the table each show the amount of solid matter.

[2] = Octanol/water distribution coefficient (log P value, OECD Test Guideline 107); type: physicochemical
Text: The octanol/water distribution coefficient is a value referred to as a log P value and refers to a value defined in OECD Test Guideline 107. As the log P value is larger, the hydrophobicity is higher. As the log P value is smaller, the hydrophilicity is higher.

solubility [1]: poor
octanol/water distribution coefficient [2]: 2.25
SMILES: COC(=O)c1ccc(C(=O)OC)cc1 [dimethyl terephthalate]
